Measured values from publication PMC11364104, “Discovery of SARS-CoV-2 papain-like protease (PL^pro) inhibitors with efficacy in a murine infection model” (Science Advances, 2024).
Where two headings read alike, the source gives them in different places.

What was measured:
in vitro [1] = details: mouse, plasma
[2] = Metabolic stability in cryopreserved human hepatocytes
CYP2C8 = CYP2C8 (Homo sapiens, UniProt P10632); assay: biochemical
PDE3B = biological target: T1, PDE3B (Homo sapiens, UniProt Q13370); assay: CEREP enzyme inhibition; format: biochemical
T1 construct: purchased Eurofins Cerep

Acetylcholinesterase = biological target: T2, Acetylcholinesterase (Homo sapiens, UniProt P22303); assay: CEREP enzyme inhibition; format: biochemical
T2 construct: purchased Eurofins Cerep

Cyclooxygenase 2 = biological target: T3, Cyclooxygenase 2 (Homo sapiens, UniProt P35354); assay: CEREP enzyme inhibition; format: biochemical
T3 construct: purchased Eurofins Cerep

in vivo = assay: in vivo; set-up: species or system mouse; details: for Vd: C57BL6, mouse, iv, 1 mg/kg, read-out: Vdss
Human Cathepsin L = biological target: T4, Human Cathepsin L (Homo sapiens, UniProt P07711); assay: biochemical
T4 construct: assay run at Reaction Biology Corporation

L-Type Ca (Diltiazem) = assay: CEREP ion channel-binding; details: 30 µM
CYP2C9 = CYP2C9 (Homo sapiens, UniProt P11712); assay: biochemical
[3] = biological target: T5, Androgen Receptor (Binding) (Homo sapiens, UniProt P10275); assay: CEREP NHR-binding
T5 construct: purchased Eurofins Cerep

Human Cathepsin B = biological target: T6, Human Cathepsin B (Homo sapiens, UniProt P07858); assay: biochemical
T6 construct: assay run at Reaction Biology Corporation

Human Cathepsin S = biological target: T7, Human Cathepsin S (Homo sapiens, UniProt P25774); assay: biochemical
T7 construct: assay run at Reaction Biology Corporation

Src Kinase = biological target: T8, Src Kinase (Homo sapiens, UniProt P12931); assay: CEREP kinase inhibition; format: biochemical
T8 construct: purchased Eurofins Cerep

[4] = biological target: Human Immunodeficiency Virus-1 protease (Human immunodeficiency virus type 1 group M subtype B, UniProt P04585); assay: biochemical
in vitro [5] = details: both, human, plasma
Sodium (Site 2) = assay: CEREP ion channel-binding; details: 30 µM
in vitro [6] = details: male, Wistar-Hannover, rat, plasma
[7] = tested on: SARS-CoV-2 strain USA-WA1/2020; assay: dNHBE (human airway epithelial) cell infection model; format: cell-based; details: Severe acute respiratory syndrome coronavirus 2, Epithelial cell; dNHBE (human airway epithelial) cells; plaque assay 3 dpi
[8] = tested on: GABAa (benzodiazepine Site); assay: CEREP ion channel-binding; details: 30 µM
Human Elastase = biological target: T9, Human Elastase (Homo sapiens, UniProt P08246); assay: biochemical
T9 construct: Reaction Biology Corporation (ran the assay as a service)

Human Chymotrypsin = format: biochemical
Human Cathepsin F = biological target: T10, Human Cathepsin F (Homo sapiens, UniProt Q9UBX1); assay: biochemical
T10 construct: assay run at BPS Bioscience

Human Cathepsin V = biological target: T11, Human Cathepsin V (Homo sapiens, UniProt O60911); assay: biochemical
T11 construct: assay run at Reaction Biology Corporation

in vitro [9] = details: dog, plasma
[10] = Media binding for in vitro cell systems; format: in vitro ADME
[11] = in vivo, Male C57BL6 mouse, 1.0 mg/kg iv, solution, mean n=2
[12] = in vivo, Male C57BL6 mouse, 10 mg/kg po, solution, mean n=2
[13] = mouse Balb c female, PO 15 mg/kg, suspension
[14] = mouse Balb c female, PO 50 mg/kg, suspension
[15] = mouse Balb c female, PO 150 mg/kg, suspension
[16] = mouse C57BL6 male, IV 1 mg/kg, solution
[17] = mouse C57BL6 male, PO 10 mg/kg, solution
[18] = mouse C57BL6 male, PO 30 mg/kg, solution

T1 sequence (Q13370 whole entry): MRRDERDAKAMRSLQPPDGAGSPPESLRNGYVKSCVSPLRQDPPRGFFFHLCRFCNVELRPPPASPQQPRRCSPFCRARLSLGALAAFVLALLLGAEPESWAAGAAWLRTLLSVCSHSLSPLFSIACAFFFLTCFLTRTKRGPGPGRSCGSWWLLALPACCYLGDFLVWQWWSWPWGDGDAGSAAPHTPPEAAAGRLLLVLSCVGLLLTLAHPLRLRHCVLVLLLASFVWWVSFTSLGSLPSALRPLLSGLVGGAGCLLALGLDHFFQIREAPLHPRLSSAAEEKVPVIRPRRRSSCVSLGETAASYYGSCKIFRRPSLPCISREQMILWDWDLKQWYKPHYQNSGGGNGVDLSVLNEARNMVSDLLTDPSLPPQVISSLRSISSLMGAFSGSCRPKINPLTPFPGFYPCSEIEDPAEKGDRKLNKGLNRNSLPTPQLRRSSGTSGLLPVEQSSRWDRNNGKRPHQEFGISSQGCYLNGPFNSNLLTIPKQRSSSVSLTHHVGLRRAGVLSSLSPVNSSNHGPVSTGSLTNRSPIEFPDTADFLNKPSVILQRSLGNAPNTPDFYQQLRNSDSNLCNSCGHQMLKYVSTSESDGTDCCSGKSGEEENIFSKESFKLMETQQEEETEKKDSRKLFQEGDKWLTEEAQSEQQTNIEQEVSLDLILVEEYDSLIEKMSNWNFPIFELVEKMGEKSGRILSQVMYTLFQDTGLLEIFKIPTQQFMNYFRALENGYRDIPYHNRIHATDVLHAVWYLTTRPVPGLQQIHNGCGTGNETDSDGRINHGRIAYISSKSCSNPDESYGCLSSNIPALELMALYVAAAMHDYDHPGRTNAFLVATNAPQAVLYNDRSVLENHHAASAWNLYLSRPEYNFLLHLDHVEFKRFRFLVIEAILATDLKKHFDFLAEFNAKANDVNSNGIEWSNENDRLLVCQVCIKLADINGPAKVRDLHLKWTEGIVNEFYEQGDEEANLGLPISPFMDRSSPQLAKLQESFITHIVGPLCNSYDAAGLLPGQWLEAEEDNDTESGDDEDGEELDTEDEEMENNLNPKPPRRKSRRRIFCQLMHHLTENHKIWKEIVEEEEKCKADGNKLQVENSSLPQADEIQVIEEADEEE
T7 sequence (P25774 115-331): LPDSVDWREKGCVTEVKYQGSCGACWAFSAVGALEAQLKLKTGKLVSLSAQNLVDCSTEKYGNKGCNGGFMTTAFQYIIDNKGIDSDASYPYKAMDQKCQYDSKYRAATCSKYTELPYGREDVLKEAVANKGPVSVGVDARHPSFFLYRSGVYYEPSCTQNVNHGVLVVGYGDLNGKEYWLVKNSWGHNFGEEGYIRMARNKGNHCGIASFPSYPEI
T10 sequence (Q9UBX1 271-484): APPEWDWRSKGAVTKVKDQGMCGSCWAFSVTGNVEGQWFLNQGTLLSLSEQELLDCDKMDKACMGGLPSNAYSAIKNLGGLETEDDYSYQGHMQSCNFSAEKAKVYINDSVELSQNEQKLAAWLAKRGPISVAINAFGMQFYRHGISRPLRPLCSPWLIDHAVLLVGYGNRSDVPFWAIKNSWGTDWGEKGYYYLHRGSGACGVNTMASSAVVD
T4 sequence (P07711 114-333): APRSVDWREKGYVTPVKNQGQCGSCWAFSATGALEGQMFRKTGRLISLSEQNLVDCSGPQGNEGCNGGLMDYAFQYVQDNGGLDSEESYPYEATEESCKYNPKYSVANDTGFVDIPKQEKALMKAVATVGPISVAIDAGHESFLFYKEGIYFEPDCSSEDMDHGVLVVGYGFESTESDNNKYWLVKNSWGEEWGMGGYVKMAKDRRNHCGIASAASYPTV
T2 sequence (P22303 32-614): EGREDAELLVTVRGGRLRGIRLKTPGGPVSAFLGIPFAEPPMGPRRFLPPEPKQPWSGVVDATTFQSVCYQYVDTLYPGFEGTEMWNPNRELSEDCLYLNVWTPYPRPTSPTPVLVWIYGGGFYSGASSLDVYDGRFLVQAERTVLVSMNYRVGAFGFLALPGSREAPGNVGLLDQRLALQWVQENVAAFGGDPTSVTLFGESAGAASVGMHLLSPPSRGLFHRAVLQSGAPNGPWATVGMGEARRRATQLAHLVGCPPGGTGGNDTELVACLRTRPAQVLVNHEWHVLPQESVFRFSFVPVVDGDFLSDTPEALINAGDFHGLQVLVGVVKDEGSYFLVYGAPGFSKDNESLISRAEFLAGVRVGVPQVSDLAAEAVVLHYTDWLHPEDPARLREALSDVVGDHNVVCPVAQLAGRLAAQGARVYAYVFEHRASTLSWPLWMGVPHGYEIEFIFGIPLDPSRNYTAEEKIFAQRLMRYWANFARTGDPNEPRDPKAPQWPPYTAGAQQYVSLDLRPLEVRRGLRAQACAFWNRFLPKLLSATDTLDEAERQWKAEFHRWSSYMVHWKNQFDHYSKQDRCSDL
T3 sequence (P35354 18-604): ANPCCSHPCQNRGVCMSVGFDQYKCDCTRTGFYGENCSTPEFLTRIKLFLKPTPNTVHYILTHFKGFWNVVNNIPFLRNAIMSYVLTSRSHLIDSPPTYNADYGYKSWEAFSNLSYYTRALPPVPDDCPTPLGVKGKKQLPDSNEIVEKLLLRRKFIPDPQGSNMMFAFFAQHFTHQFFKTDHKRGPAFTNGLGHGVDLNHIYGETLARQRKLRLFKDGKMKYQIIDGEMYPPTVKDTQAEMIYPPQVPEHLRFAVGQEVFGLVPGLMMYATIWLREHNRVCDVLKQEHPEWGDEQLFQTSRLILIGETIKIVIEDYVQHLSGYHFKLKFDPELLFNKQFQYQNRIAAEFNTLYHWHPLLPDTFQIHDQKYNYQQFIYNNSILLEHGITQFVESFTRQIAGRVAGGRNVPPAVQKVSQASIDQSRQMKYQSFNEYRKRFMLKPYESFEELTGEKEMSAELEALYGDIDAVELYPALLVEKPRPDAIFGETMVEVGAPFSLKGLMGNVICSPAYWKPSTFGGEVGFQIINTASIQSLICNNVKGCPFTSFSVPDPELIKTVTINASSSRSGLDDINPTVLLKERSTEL
T9 sequence (P08246 30-267): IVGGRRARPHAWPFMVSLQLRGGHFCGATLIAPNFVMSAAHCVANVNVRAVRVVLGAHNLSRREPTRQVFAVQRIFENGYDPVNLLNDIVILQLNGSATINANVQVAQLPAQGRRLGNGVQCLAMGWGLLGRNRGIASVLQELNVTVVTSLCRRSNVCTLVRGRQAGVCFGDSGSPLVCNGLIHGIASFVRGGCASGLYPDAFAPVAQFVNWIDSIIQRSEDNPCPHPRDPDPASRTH
Chain of CYP2C9 (P11712 whole entry): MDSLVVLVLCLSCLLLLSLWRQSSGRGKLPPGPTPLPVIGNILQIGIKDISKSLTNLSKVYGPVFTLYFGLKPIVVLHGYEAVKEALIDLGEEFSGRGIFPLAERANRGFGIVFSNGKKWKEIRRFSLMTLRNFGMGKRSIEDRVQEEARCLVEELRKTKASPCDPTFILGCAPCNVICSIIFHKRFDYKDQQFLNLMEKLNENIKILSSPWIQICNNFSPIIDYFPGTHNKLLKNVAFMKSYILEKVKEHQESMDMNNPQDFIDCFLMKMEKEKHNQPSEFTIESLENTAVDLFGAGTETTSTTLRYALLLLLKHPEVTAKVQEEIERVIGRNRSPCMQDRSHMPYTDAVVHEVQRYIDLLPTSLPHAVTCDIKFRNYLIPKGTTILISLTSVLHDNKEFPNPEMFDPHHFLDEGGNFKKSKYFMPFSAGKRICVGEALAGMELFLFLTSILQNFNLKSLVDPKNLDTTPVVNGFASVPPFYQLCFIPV
Chain of CYP2C8 (P10632 whole entry): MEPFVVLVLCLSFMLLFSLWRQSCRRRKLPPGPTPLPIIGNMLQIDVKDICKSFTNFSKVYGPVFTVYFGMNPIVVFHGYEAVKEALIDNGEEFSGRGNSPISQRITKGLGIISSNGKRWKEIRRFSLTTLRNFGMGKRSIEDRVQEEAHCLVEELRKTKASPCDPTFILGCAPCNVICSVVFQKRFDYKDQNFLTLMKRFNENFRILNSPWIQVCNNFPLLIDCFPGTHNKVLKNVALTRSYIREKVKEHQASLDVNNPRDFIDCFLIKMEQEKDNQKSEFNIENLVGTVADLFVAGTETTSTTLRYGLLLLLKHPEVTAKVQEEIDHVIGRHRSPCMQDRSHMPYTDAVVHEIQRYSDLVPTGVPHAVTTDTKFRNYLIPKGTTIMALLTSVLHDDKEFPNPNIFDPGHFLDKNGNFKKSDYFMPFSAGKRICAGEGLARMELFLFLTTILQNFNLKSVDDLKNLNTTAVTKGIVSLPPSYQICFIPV
T8 sequence (P12931 whole entry): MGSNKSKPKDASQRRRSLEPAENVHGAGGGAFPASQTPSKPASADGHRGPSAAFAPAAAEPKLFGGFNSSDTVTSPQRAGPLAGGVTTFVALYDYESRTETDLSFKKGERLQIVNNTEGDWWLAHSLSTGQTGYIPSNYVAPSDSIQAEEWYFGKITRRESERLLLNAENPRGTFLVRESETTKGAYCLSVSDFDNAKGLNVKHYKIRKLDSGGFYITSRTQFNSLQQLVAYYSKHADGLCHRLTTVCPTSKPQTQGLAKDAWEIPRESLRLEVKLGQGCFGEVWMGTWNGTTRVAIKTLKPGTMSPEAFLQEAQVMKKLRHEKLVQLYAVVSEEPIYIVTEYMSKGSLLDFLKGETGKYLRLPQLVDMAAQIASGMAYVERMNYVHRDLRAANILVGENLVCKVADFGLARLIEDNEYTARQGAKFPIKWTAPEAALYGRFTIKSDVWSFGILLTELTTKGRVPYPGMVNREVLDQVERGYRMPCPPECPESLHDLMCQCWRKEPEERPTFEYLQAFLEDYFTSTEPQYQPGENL
T11 sequence (O60911 114-334): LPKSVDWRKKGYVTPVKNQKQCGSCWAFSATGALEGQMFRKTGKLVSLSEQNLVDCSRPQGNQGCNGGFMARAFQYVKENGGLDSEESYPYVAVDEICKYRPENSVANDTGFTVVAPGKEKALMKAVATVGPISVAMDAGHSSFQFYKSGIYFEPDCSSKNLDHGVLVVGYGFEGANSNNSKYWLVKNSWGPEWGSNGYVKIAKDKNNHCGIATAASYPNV

In the case of `Cc1ccc(N2CCN(C)CC2)cc1C(=O)NC1(c2cc(-c3cnn(C)c3)nc3ccccc23)CC1` [Compound 4], the fraction unbound (in vitro [1]) is reported as 0.093, the hepatocyte CLint [2] is reported as 8.84 µL/min/1e6 cells and the IC50 (CYP2C8) is reported as 76.1 µM. The inhibition at 30 µM (PDE3B) was 4%, the inhibition at 30 µM (Acetylcholinesterase) was 17% and the inhibition at 30 µM (Cyclooxygenase 2) was 36%. The “Oral F” value (in vivo; Male C57BL6 mouse, 10 mg/kg po, solution, mean n=2) was 53.10%, the AUC(0-inf) (in vivo; [11]) was 708 ng·h/mL and the half-life (in vivo; [11]) was 3.29 h. It also gave a clearance (in vivo; in vivo, Male C57BL6 mouse, 1.0 mg/kg iv, solution, mean n=2, read-out: CLp) of 23.7 mL/min/kg, an AUC(0-inf) (in vivo; [12]) of 3760 ng·h/mL and a Cmax (in vivo; [12]) of 862 ng/mL. It also gave a half-life (in vivo; [12]) of 2.19 h, a Tmax (in vivo; in vivo, Male C57BL6 mouse, 10 mg/kg po, solution, mean n=2, read-out: Tmax) of 2 h and a Cmax (in vivo; in vivo, mouse Balb c female, PO 15 mg/kg, suspension) of 1140 ng/mL. For the same molecule, the Cmax (in vivo; in vivo, mouse Balb c female, PO 50 mg/kg, suspension) was 5410 ng/mL, the Cmax (in vivo; in vivo, mouse Balb c female, PO 150 mg/kg, suspension) was 12800 ng/mL and the Cmax (in vivo; in vivo, mouse C57BL6 male, PO 30 mg/kg, solution) was 1880 ng/mL. It also gave a bioavailability (in vivo; male, C57BL6, in vivo, po, 10 mg/kg, mouse (m), read-out: Oral F (%)) of 53.2%, a Vd (in vivo; male, in vivo, Male C57BL6 mouse, 1.0 mg/kg iv, solution, mean n=2) of 2.13 L/kg and a Vd (in vivo; male, in vivo, mouse (m), intravenous) of 2.12 L/kg. For the same molecule, the Vd (in vivo; male, in vivo, mouse C57BL6 male, IV 1 mg/kg, solution) was 2.13 L/kg, the “% F Method 3 (Dose * AUC Extrap)” value (in vivo; [13]) was 74.8% and the “AUC(0,inf)” value (in vivo; [13]) was 7940 ng·h/mL. For the same molecule, the “AUC(0-Tlast)” value (in vivo; [13]) was 7940 ng·h/mL, the T1/2 (in vivo; [13]) was 1.95 h and the Tmax (in vivo; [13]) was 1.25 h. The “% F Method 3 (Dose * AUC Extrap)” value (in vivo; [14]) was 84.0%, the “AUC(0,inf)” value (in vivo; [14]) was 29800 ng·h/mL and the “AUC(0-Tlast)” value (in vivo; [14]) was 29700 ng·h/mL. The T1/2 (in vivo; [14]) was 2.01 h, the Tmax (in vivo; [14]) was 0.375 h and the “% F Method 3 (Dose * AUC Extrap)” value (in vivo; [15]) was 84.0%. The “AUC(0,inf)” value (in vivo; [15]) was 89200 ng·h/mL, the “AUC(0-Tlast)” value (in vivo; [15]) was 89100 ng·h/mL and the T1/2 (in vivo; [15]) was 2.47 h. The Tmax (in vivo; [15]) was 0.25 h, the “% of dose in feces” value (in vivo; [16]) was 26.0% and the “AUC(0,inf)” value (in vivo; [16]) was 708 ng·h/mL. For the same molecule, the “AUC(0-Tlast)” value (in vivo; [16]) was 706 ng·h/mL, the T1/2 (in vivo; [16]) was 3.29 h and the “% F Method 3 (Dose * AUC Extrap)” value (in vivo; [17]) was 53.1%. For the same molecule, the “% of dose in feces” value (in vivo; [17]) was 12.6%, the “AUC(0,inf)” value (in vivo; [17]) was 3760 ng·h/mL and the “AUC(0-Tlast)” value (in vivo; [17]) was 3760 ng·h/mL. For the same molecule, the T1/2 (in vivo; [17]) was 2.19 h, the Tmax (in vivo; [17]) was 2 h and the “% F Method 3 (Dose * AUC Extrap)” value (in vivo; [18]) was 67.4%. For the same molecule, the “% of dose in feces” value (in vivo; [18]) was 10.8%, the “AUC(0,inf)” value (in vivo; [18]) was 14300 ng·h/mL and the “AUC(0-Tlast)” value (in vivo; [18]) was 14300 ng·h/mL. For the same molecule, the T1/2 (in vivo; [18]) was 2.17 h, the Tmax (in vivo; [18]) was 2 h and the tolerability (in vivo; mouse, oral, highest dose studied (500 mg/kg)) was “tolerated”. For the same molecule, the IC50 (Human Cathepsin L) was greater than 100 µM, the “% inhibition” value (L-Type Ca (Diltiazem)) was 10% and the IC50 (CYP2C9) was greater than 30 µM. It also gave an inhibition at 30 µM [3] of -10%, an IC50 (Human Cathepsin B) greater than 100 µM and an IC50 (Human Cathepsin S) greater than 100 µM. For the same molecule, the inhibition at 30 µM (Src Kinase) was -5%, the IC50 [4] was greater than 100 µM and the fraction unbound (in vitro [5]) was 0.109. The “% inhibition” value (Sodium (Site 2)) was -15%, the fraction unbound (in vitro [6]) was 0.241 and the EC50 [7] was 0.0139 µM. For the same molecule, the EC90 [7] was 0.0567 µM, the “% inhibition” value [8] was 7% and the IC50 (Human Elastase) was greater than 100 µM. The IC50 (Human Chymotrypsin) was greater than 100 µM, the IC50 (Human Cathepsin F) was greater than 100 µM and the IC50 (Human Cathepsin V) was greater than 100 µM. The fraction unbound (in vitro [9]) was 0.176, the fraction unbound ([10]; bovine, cell culture medium (2% HI-FBS in DMEM), media: 2% HI-FBS in DMEM, n = 4, read-out: Fu (CV)) was 0.749 and the fraction unbound ([10]; dNHBE medium, read-out: fraction unbound in the dNHBE medium) was 0.916.
